Data set [1] concerns HL-60 (human promyelocytic leukemia cells). Kind of data set: MTT cytotoxicity, HL-60 cells. It counts as cell-based. The following applies: three independent experiments, read-out: Cytotoxic activity IC50 (95% CI) HL-60. As to the method: (§1) Compounds were evaluated for antitumor activity in cell culture in vitro using several human cancer cell lines obtained from the National Cancer Institute, NCI (Bethesda, MD, USA). […] The L929 cells were cultivated under standard conditions in DMEM with Earle’s salts. […] At the end of the incubation time (72 h), the plates were centrifuged and the medium was replaced by fresh medium (200 μL) containing 0.5 mg/mL MTT. After 3 h, the MTT formazan product was dissolved in DMSO (150 μL) and the absorbance was measured using a multiplate reader (Spectra Count, Packard, ON, Canada). The impact of compounds on cell proliferation was quantified as the percentage of control absorbance of the reduced dye at 550 nm. All cell culture based studies were performed in triplicate. All cells were mycoplasma-free.

Data set [2] deals with SF295 (human glioblastoma cells). Kind of data set: MTT cytotoxicity, SF295 cells. It counts as cell-based. As to conditions: three independent experiments, read-out: Cytotoxic activity IC50 (95% CI) SF295. The protocol: as §1
The test system of data set [3] is PC3 (human prostate cancer cells). In words: MTT cytotoxicity, PC3 cells. It counts as cell-based. As to conditions: three independent experiments, read-out: Cytotoxic activity IC50 (95% CI) PC3. As to the method: as §1
The nature of data set [4]: MTT cytotoxicity, L929 normal cells. Format: cell-based, mouse. The following applies: mouse, normal cell line, 72 h exposure, three independent experiments, read-out: Cytotoxic activity IC50 (95% CI) L929. As to the method: as §1
Data set [5] relates to HCT-116 (human colon carcinoma cells). In words: MTT cytotoxicity, HCT-116 cells. The following applies: three independent experiments, read-out: Cytotoxic activity IC50 (95% CI) HCT-116. Format: cell-based. The protocol: as §1
For data set [6], the system named is NCIH-460 (human lung cells). In words: MTT cytotoxicity, NCIH-460 cells. The following applies: three independent experiments, read-out: Cytotoxic activity IC50 (95% CI) NCIH-460. It counts as cell-based. The protocol:
as §1

Data set [7] deals with L929 (murine fibroblasts normal cells). In words: MTT cytotoxicity, L929 normal cells. As to conditions: normal cell line, 72 h exposure, three independent experiments, read-out: Cytotoxic activity IC50 (95% CI) L929. It counts as cell-based, mouse. As to the method:
as §1

The mark [8] stands for this setting: Homo sapiens, HL-60, 72 h exposure.
Where [9] appears, read: Homo sapiens, SF-295, 72 h exposure.
Setting [10] is: Homo sapiens, PC-3, 72 h exposure.
Where [11] appears, read: Homo sapiens, HCT-116, 72 h exposure.
Where [12] appears, read: Homo sapiens, NCI-H460, 72 h exposure.

We go through 13 compounds from PMC6017932, “Synthesis of Selenium-Quinone Hybrid Compounds with Potential Antitumor Activity via Rh-Catalyzed C-H Bond Activation and Click Reactions” (Molecules : A Journal of Synthetic Chemistry and Natural …, 2017).

Like-named read-outs stand apart in the source and are kept apart here.

As a reminder, the IC50 is the concentration that inhibits the measured activity by half. Usually melting point stands for the temperature of the solid-liquid transition. Consider `O=C1C=C([Se]c2ccc(F)cc2)C(=O)c2ccccc21` [Compound 5, 2-((4-Fluorophenyl)selanyl)naphthalene-1,4-dione], for which the melting point fell in the range of 139.2 to 139.9 °C. In addition, the IC50 in data set [1] (setting [8]) was determined as 2160 nM. In data set [2] (setting [9]), the IC50 is more than 10000 nM. Besides, the IC50 in data set [3] (setting [10]) is more than 10000 nM. Also, the IC50 at 72 h in data set [4] was more than 10000 nM. Also, the half-inhibitory concentration (IC50) in data set [5] (setting [11]) was more than 10000 nM. Moreover, the 50% inhibitory concentration (IC50) in data set [6] (setting [12]) is more than 10000 nM.

In turn, `COC1=C(Cn2cc(-c3ccc(Br)cc3)nn2)C(=O)c2ccccc2C1=O` [Compound 13, 2-((4-(4-Bromophenyl)-1H-1,2,3-triazol-1-yl)methyl)-3-methoxynaphthalene-1,4-dione] displayed a melting point of 174.1 to 175 °C. The half-inhibitory concentration (IC50) in data set [1] (setting [8]) is more than 10000 nM. Further, the IC50 in data set [2] (setting [9]) was more than 10000 nM. Besides, in data set [3] (setting [10]), the IC50 is more than 10000 nM. Moreover, the half-inhibitory concentration (IC50) at 72 h in data set [4] is more than 10000 nM. Besides, the half-maximal inhibitory concentration (IC50) in data set [5] (setting [11]) is more than 10000 nM. Moreover, in data set [6] (setting [12]), the 50% inhibitory concentration (IC50) was more than 10000 nM.

On to `CC1(C)OC2=C(C(=O)C(=O)c3ccccc32)C(n2cc(C[Se]c3ccc(Cl)cc3)nn2)C1Br` (stereo not shown) [Compound 17, 3-Bromo-4-(4-(((4-chlorophenyl)selanyl)methyl)-1H-1,2,3-triazol-1-yl)-2,2-dimethyl-3,4-dihydro-2H-benzo[h]chromene-5,6-dione], for which the melting point fell in the range of 185.3 to 187.1 °C. In addition, the IC50 in data set [1] (setting [8]) stood at 810 nM. Moreover, the IC50 in data set [2] (setting [9]) was determined as 2600 nM. The IC50 in data set [3] (setting [10]) came to 2030 nM. Further, the concentration for half-maximal inhibition (IC50) at 72 h in data set [4] amounted to 520 nM. Besides, the IC50 in data set [5] (setting [11]) is more than 8000 nM. In addition, the IC50 in data set [6] (setting [12]) turned out to be 2060 nM.

“4-(4-((Benzylselanyl)methyl)-1H-1,2,3-triazol-1-yl)-3-bromo-2,2-dimethyl-3,4-dihydro-2H-benzo[h]-chromene-5,6-dione [Compound 20]”: the IC50 in data set [1] (72 h exposure) turned out to be 1000 nM; in data set [2] (72 h exposure) it was 3120 nM; in data set [7], 610 nM; in data set [5] (72 h exposure), 2030 nM; in data set [6] (72 h exposure) it was 3260 nM.

Consider `COC1=C(Cn2cc(C[Se]c3ccccc3)nn2)C(=O)c2ccccc2C1=O` [Compound 14, 2-Methoxy-3-((4-((phenylselanyl)methyl)-1H-1,2,3-triazol-1-yl)methyl)naphthalene-1,4-dione], for which the melting point was in the range of 69 to 71 °C. Further, the half-maximal inhibitory concentration (IC50) in data set [1] (setting [8]) was more than 10000 nM. The half-maximal inhibitory concentration (IC50) in data set [2] (setting [9]) was more than 10000 nM. Moreover, the IC50 in data set [3] (setting [10]) was more than 10000 nM. In data set [4], the concentration for half-maximal inhibition (IC50) at 72 h is more than 10000 nM. The IC50 in data set [5] (setting [11]) is more than 10000 nM. Moreover, in data set [6] (setting [12]), the IC50 is more than 10000 nM.

The compound `CCCC[Se]Cc1cn(C2C3=C(OC(C)(C)C2Br)c2ccccc2C(=O)C3=O)nn1` (stereo not shown) [Compound 23, 3-Bromo-4-(4-((butylselanyl)methyl)-1H-1,2,3-triazol-1-yl)-2,2-dimethyl-3,4-dihydro-2H-benzo[h]chromene-5,6-dione] came in with a melting point of 123.1 to 124.4 °C. The concentration for half-maximal inhibition (IC50) in data set [1] (setting [8]) was 710 nM. For the same compound, the 50% inhibitory concentration (IC50) in data set [2] (setting [9]) is 3430 nM. In data set [3] (setting [10]), the half-inhibitory concentration (IC50) was 1640 nM. The IC50 at 72 h in data set [4] was 2120 nM. Besides, in data set [5] (setting [11]), the concentration for half-maximal inhibition (IC50) worked out at 970 nM. Moreover, the half-inhibitory concentration (IC50) in data set [6] (setting [12]) was 2640 nM.

In the case of `COC1=C(Cn2cc(-c3ccc(C)cc3)nn2)C(=O)c2ccccc2C1=O` [Compound 12, 2-Methoxy-3-((4-(p-tolyl)-1H-1,2,3-triazol-1-yl)methyl)naphthalene-1,4-dione], the melting point lay in the range of 123.1 to 124.5 °C. For the same compound, the IC50 in data set [1] (setting [8]) is more than 10000 nM. Moreover, in data set [2] (setting [9]), the IC50 was more than 10000 nM. In addition, the IC50 in data set [3] (setting [10]) is more than 10000 nM. In data set [4], the IC50 at 72 h is more than 10000 nM. In addition, the IC50 in data set [5] (setting [11]) was more than 10000 nM. Also, in data set [6] (setting [12]), the 50% inhibitory concentration (IC50) was more than 10000 nM.

`COC1=C(Cn2cc(-c3ccc(OC)cc3)nn2)C(=O)c2ccccc2C1=O` [Compound 11, 2-Methoxy-3-((4-(4-methoxyphenyl)-1H-1,2,3-triazol-1-yl)methyl)naphthalene-1,4-dione]: the melting point lay within 149.3 to 150.7 °C. Moreover, the concentration for half-maximal inhibition (IC50) in data set [1] (setting [8]) is 2320 nM. Besides, the IC50 in data set [2] (setting [9]) was more than 10000 nM. In addition, in data set [3] (setting [10]), the concentration for half-maximal inhibition (IC50) was more than 10000 nM. Moreover, the IC50 at 72 h in data set [4] is more than 10000 nM. The IC50 in data set [5] (setting [11]) is more than 10000 nM. Also, in data set [6] (setting [12]), the IC50 is more than 10000 nM.

For the compound `COc1ccc([Se]C2=CC(=O)c3ccccc3C2=O)cc1` [Compound 3, 2-((4-Methoxyphenyl)selanyl)naphthalene-1,4-dione], the melting point was 140.7 to 148.3 °C. Besides, the IC50 in data set [1] (setting [8]) worked out at 4680 nM. Also, in data set [2] (setting [9]), the IC50 is more than 10000 nM. Further, in data set [3] (setting [10]), the IC50 was more than 10000 nM. For the same compound, the half-inhibitory concentration (IC50) at 72 h in data set [4] was more than 10000 nM. In data set [5] (setting [11]), the IC50 is more than 10000 nM. Moreover, the IC50 in data set [6] (setting [12]) was more than 10000 nM.

In turn, `O=C1C=C([Se]c2ccc(Cl)cc2)C(=O)c2ccccc21` [Compound 4, 2-((4-Chlorophenyl)selanyl)naphthalene-1,4-dione] came in with a melting point of 154.8 to 155.7 °C. The concentration for half-maximal inhibition (IC50) in data set [1] (setting [8]) is 2250 nM. Further, in data set [2] (setting [9]), the IC50 is more than 10000 nM. The IC50 in data set [3] (setting [10]) is more than 10000 nM. Further, the half-inhibitory concentration (IC50) at 72 h in data set [4] is more than 10000 nM. The IC50 in data set [5] (setting [11]) is more than 10000 nM. For the same compound, in data set [6] (setting [12]), the concentration for half-maximal inhibition (IC50) was more than 10000 nM.

In the case of `COC1=C(Cn2cc(-c3ccc([N+](=O)[O-])cc3)nn2)C(=O)c2ccccc2C1=O` [Compound 10, 2-Methoxy-3-((4-(4-nitrophenyl)-1H-1,2,3-triazol-1-yl)methyl)naphthalene-1,4-dione], the melting point is 205.8 to 206.7 °C. Also, the IC50 in data set [1] (setting [8]) is more than 10000 nM. Moreover, the IC50 in data set [2] (setting [9]) was more than 10000 nM. Also, the IC50 in data set [3] (setting [10]) is more than 10000 nM. In addition, the IC50 at 72 h in data set [4] is more than 10000 nM. Moreover, the IC50 in data set [5] (setting [11]) is more than 10000 nM. In addition, the half-inhibitory concentration (IC50) in data set [6] (setting [12]) was more than 10000 nM.

For “3-Bromo-2,2-dimethyl-4-(4-((p-tolylselanyl)methyl)-1H-1,2,3-triazol-1-yl)-3,4-dihydro-2H-benzo[h]-chromene-5,6-dione [Compound 21]”, the IC50 was 1000 nM in data set [1] (72 h exposure); 1630 nM in data set [2] (72 h exposure); 1770 nM in data set [3] (72 h exposure); 1280 nM in data set [7]; more than 8000 nM in data set [5] (72 h exposure); 1490 nM in data set [6] (72 h exposure).

Consider `CC1(C)OC2=C(C(=O)C(=O)c3ccccc32)C(n2cc(C[Se]c3ccc(F)cc3)nn2)C1Br` (stereo not shown) [Compound 18, 3-Bromo-4-(4-(((4-fluorophenyl)selanyl)methyl)-1H-1,2,3-triazol-1-yl)-2,2-dimethyl-3,4-dihydro-2H-benzo[h]chromene-5,6-dione], for which the melting point lay in the range of 187.1 to 190 °C. For the same compound, the half-maximal inhibitory concentration (IC50) in data set [1] (setting [8]) amounted to 590 nM. In addition, the half-maximal inhibitory concentration (IC50) in data set [2] (setting [9]) worked out at 1480 nM. Also, the concentration for half-maximal inhibition (IC50) in data set [3] (setting [10]) stood at 1060 nM. Moreover, the half-inhibitory concentration (IC50) at 72 h in data set [4] stood at 360 nM. In addition, the concentration for half-maximal inhibition (IC50) in data set [5] (setting [11]) turned out to be 370 nM. In addition, the half-maximal inhibitory concentration (IC50) in data set [6] (setting [12]) was found to be 1320 nM.
